Common to all, as to assay type: in vivo, human
Assay [1] in a line: Equivalent concentration of bitter taste, sensory evaluation, arginine solution (Example 28). The note with it: 2% arginine solution; addition 4.4 ppm; as concentration of anhydrous caffeine; 10 panelists; no addition 0.131. Here is the method:
(§1) With respect to the solution produced by adding derivative 1 (the product of the present invention), or adding nothing (no addition; the reference product) in the concentration shown in the following table 4 to the amino acid solution (2% solution of arginine by weight), the sensory evaluation was performed (using 10 panelists), and the equivalent concentration of bitter taste was determined. The results were shown in the table 4, wherein the equivalent concentration of bitter taste was shown in the concentration of aqueous solution of anhydrous caffeine which is a substance of bitter taste.

The nature of assay [2]: Magnification of sweetness intensity in the cola drink (sensory evaluation against sucrose cola drinks). The note with it: for magnification of sweetness intensity in the cola drink: vs cola drink containing 10% sucrose. From the text:
And the magnification of sweetness intensity in the cola drink can be also determined by the same method compared to the control solution of cola drink containing 10% sucrose.
The composition of cola drink is as follows.
As for the concentration of the references, the sucrose concentrations of previous (a) to (e) were used. In consequence, the magnification of sweetness intensity in the cola drink of derivative 1 was 22600 times, and that of derivative 2 was 4900 times.
And the magnification of sweetness intensity in the cola drink can be also determined by the same method compared to the reference solution of cola drink containing 10% sucrose.
The components of cola drink is as follows.
As for the concentration of the references, the sucrose concentrations of previous (a) to (e) were used. As the results, the magnification of sweetness intensity in the cola drink of derivative 1 was 22600 times, and that of derivative 2 was 4900 times.
And the magnification of sweetness in the cola drink can be also determined by the same method compared to the control solution of cola drink containing 10% sucrose.
As for the concentration of the references, the sucrose concentrations of previous (a) to (e) were used. As a result, the magnification of sweetness intensity in the cola drink of derivative 1 was 22600 times, and that of derivative 2 was 4900 times.

Assay [3] is described as follows: Taste characteristics in a cola drink (9 items, similarity index vs cola drink containing 10% sucrose). The following applies: non-carbonated cola drink, PSE 10%, vs cola drink with 10% sucrose; smaller = closer to sucrose; 8 panelists. As for the experimental part:
The following experiments were performed in the same way as that of Example 2. Instead of aqueous solution, the cola drink of each of derivatives 1 to 9 having a sweetness level equivalent to that of PSE 10% was prepared, and compared with the cola drink containing 10% sucrose. The evaluation method and so on were same as that of Example 2.
When carbon dioxide is blown in the cola drink, the carbonated cola drink is prepared, however, the taste of the cola drink can be compared more easily in that without carbon dioxide. Thus the sensory evaluation of non-carbonated cola drink was performed.
The composition of the cola drink employed was same as that of Example 1.
The similarity indexes were calculated as those of aqueous solutions. The smaller the similarity index becomes, the better the taste balances, and the closer the taste is to the taste characteristics (quality) of sucrose. The total taste becomes preferable. The similarity indexes of each derivatives are shown as follows. […]
The following experiments were conducted in the same way as that of Example 15. Instead of aqueous solution, the cola drink of each of derivatives 1 to 9 having a sweetness level equivalent to that of PSE 10% was prepared, and compared with the cola drink containing 10% sucrose. All of the evaluation method and so on were same as those of Example 15.
When carbon dioxide is blown in the cola drink, the carbonated cola drink is prepared, however, the taste of the cola drink can be compared more easily in that without carbon dioxide. Thus the non-carbonated cola drink was organoleptically evaluated.
The composition of the cola drink employed was same as that of Example 14.
The similarity indexes were calculated as those of aqueous solutions. The smaller the similarity index becomes, the better the taste balances, and the closer the taste is to the taste characteristics (quality)of sucrose. The total taste becomes preferable. The similarity indexes of each of the derivatives are shown as follows. […]

A short description of assay [4]: Equations for calculating sweetness intensity and values calculated from them. The following applies: for concentration of the derivative of PSE 0.5%: from the cola drink equation of Example 17; for X when Y=6.3%: from the equation of the respective derivative. The text has this: For example, when preparing a solution having a intensity of sweetness equivalent to that of 10% sucrose, wherein 80% of the 10% of intensity of sweetness is from the sweetener component A and the residual 20% is from the sweetener component B, the sweetness ratio is A:B=8:2. When the sweetening magnification relative to sucrose varies depending on the composition and the concentration of the sweetener component is varied even if it is a same sweetener component (in this case, an exponential curve can be prepared and used for calculation), the objective weight of the sweetener component can be calculated. For example, if the equation for converting sweetness intensity (the exponential curve) component A is Y=aX^b, and the equation for converting sweetness intensity (the exponential curve)of component B is Y=cX^d, the weight ratio of the components A and B in the ratio A:B=8:2, can be determined using the following calculation, where Y is a concentration equivalent to that of sucrose (PSE %), and X is the sweetener component concentration (g/100 ml):
Equations for calculating sweetness intensity in the cola drink (pH 2.8, 20° C.) are as follows, wherein Y denotes the concentration equivalent to that of sucrose (g/100 ml) and X denotes the concentration of the sweetener (g/100 ml), respectively.
With regard to Acesulfame K, the magnification of sweetness intensity was determined according to the following equation for calculating sweetness intensity.
[Y: concentration equivalent to that of sucrose (g/100ml); X: concentration of Acesulfame K (g/100 ml)]
By using the equation for calculating sweetness intensity in the cola drink (refer to Example 4) and the equation for calculating sweetness intensity of Aspartame (refer to the monthly Journal “Food Chemical” August, page 35, 1997), the necessary amounts of those were calculated. In case of Aspartame, the values at 20° C., pH2.8 were used.
The equation for calculating sweetness intensity of derivative 1 in the aqueous solution is as follows.
Where, the calculation of the sweetness was made by using the equation for calculating sweetness intensity of derivative 4 Y=58775X^1.04. When Y=6.3%, X=0.00015 g/100 ml, When Y=5.1%, X=0.00012 g/100 ml.
Examples for equations for calculating sweetness intensity in the cola drink (pH2.8, 20° C.) are as follows, and another equations can be prepared in the same manner, wherein Y denotes the concentration equivalent to that of sucrose (g/100 ml) and X denotes the concentration of the sweetener (g/100 ml), respectively.

A short description of assay [5]: Equivalent concentration of bitter taste (Example 30), thiamine hydrochloride. The following applies: derivative 4 2.2 ppm; thiamine hydrochloride 5000 ppm; no addition 0.131. Here is the method:
as §1
(§2) With respect to the solution produced by adding derivative 4 (2.2 ppm) to each of the substances of Quinine sulfate (39 ppm), anhydrous caffeine (2000 ppm), ferrous citrate (50 ppm), calcium lactate (1500 ppm), and thiamine hydrochloride (5000 ppm) (the product of the present invention), or adding nothing thereto (no addition; the reference product) the reference product (no addition), the sensory evaluation was performed (using 10 panelists), and the equivalent concentration of bitter taste was determined in the same way as that described in Example 28, and shown in table 6.

A short description of assay [6]: Equivalent concentration of bitter taste (Example 30), Quinine sulfate. The note with it: derivative 4 2.2 ppm; Quinine sulfate 39 ppm; no addition 0.084. Here is the method: as §1, §2

Turning to `COC(=O)[C@H](Cc1ccccc1)NC(=O)[C@H](CC(=O)O)NCCCc1ccc(OC)c(O)c1` [Derivative 1, N-[N-[3-(3-hydroxy-4-methoxyphenyl)propyl] -L-α-aspartyl]-L-phenylalanine 1-methyl ester], the “Equivalent concentration of bitter taste” value in assay [1] is given as 0.060 g/100 g. For the same compound, in assay [2], the “Amount equivalent to PSE 10%” value stood at 4.5 mg/1000 ml and the “magnification of sweetness intensity in the cola drink” value amounted to 22600 times. In assay [3], this compound gave a Similarity index of 0.78. For the same compound, in assay [4] (calculated, block ice of Example 12), the “magnification of the sweetness intensity at PSE 5%” value is 25600 times. Further, in assay [4] (cola drink, pH 2.8, 20° C.), the “X, concentration of the sweetener when Y=1” value is 0.000074 g/100 ml; the “X, concentration of the sweetener when Y=2” value was 0.00013 g/100 ml; the “X, concentration of the sweetener when Y=5” value is 0.00026 g/100 ml; the “X, concentration of the sweetener when Y=8” value is on record as 0.00037 g/100 ml. Further, the “X, concentration of the sweetener when Y=9.5” value in assay [4] (cola drink, pH 2.8, 20° C.) is 0.000425 g/100 ml. The “concentration of the derivative of PSE 0.5%” value in assay [4] was 0.0000434 g/dL.
For `COC(=O)[C@H](Cc1ccccc1)NC(=O)[C@H](CC(=O)O)NCCCc1ccc(OC)cc1` [Derivative 2, N-[N-[3-(4-methoxyphenyl)propyl]-L-α-aspartyl]-L-phenylalanine 1-methyl ester], in assay [2], the “Amount equivalent to PSE 10%” value worked out at 20.4 mg/1000 ml and the “magnification of sweetness intensity in the cola drink” value was found to be 4900 times. Moreover, in assay [3], the Similarity index is 0.80. In assay [4] (calculated, sweetener for tabletop use), the “magnification of sweetness intensity at PSE 4%” value was 6000 times. Moreover, in assay [4], the “concentration of the derivative of PSE 0.5%” value is 0.0000597 g/dL.
On to `COC(=O)[C@H](Cc1ccccc1)NC(=O)[C@H](CC(=O)O)NCCC(C)(C)c1ccc(O)c(C)c1` [Derivative 4, N-[N-[3-(3-methyl-4-hydroxyphenyl)-3-methylbutyl]-L-α-aspartyl]-L-phenylalanine 1-methyl ester], for which, in assay [5], the “Equivalent concentration of bitter taste (Amount of anhydrous caffeine g/100 g), Tiamine hydrochloride” value was 0.093 g/100 g. The “Amount equivalent to PSE 10%” value in assay [2] came to 3.4 mg/1000 ml. For the same compound, the “Equivalent concentration of bitter taste (Amount of anhydrous caffeine g/100 g), Quinine sulfate” value in assay [6] amounted to 0.025 g/100 g. Also, the Similarity index in assay [3] worked out at 1.04. Moreover, in assay [4] (from the equation of derivative 4), the “X when Y=5.1%” value is reported as 0.00012 g/100 ml. The “X when Y=6.3%” value in assay [4] is on record as 0.00015 g/100 ml.
On to `COC(=O)[C@H](Cc1ccccc1)NC(=O)[C@H](CC(=O)O)NCCC(C)(C)c1ccc(O)cc1` [Derivative 6, N-[N-[3-(4-hydroxyphenyl)-3-methylbutyl]-L-α-aspartyl]-L-phenylalanine 1-methyl ester], for which the “Amount equivalent to PSE 10%” value in assay [2] is on record as 7.1 mg/1000 ml. In assay [3], this compound registered a Similarity index of 0.81. In assay [4] (from the equation of derivative 6), the “X when Y=9.6%” value is reported as 0.000685 g/100 ml.
Consider `COC(=O)[C@H](Cc1ccccc1)NC(=O)[C@H](CC(=O)O)NCCCc1ccc(O)c(C)c1` [Derivative 8, N-[N-[3-(3-methyl-4-hydroxyphenyl)propyl]-L-α-aspartyl]-L-phenylalanine 1-methyl ester], for which, in assay [2], the “Amount equivalent to PSE 10%” value is reported as 6.3 mg/1000 ml. Moreover, the Similarity index in assay [3] came to 1.00. Further, the “X when Y=8.9%” value in assay [4] (from the equation of derivative 8) is recorded as 0.00055 g/100 ml. Further, the “X when Y=6.3%” value in assay [4] is 0.00036 g/100 ml.

Source of the values: patent US20030059511A1, “Sweetener compositions and uses thereof” (AJINOMOTO CO., INC., priority 1999, published 2003).
